Each compound was assayed against T1, Zcchc11 enzyme (Homo sapiens, UniProt Q5TAX3) (assay: TUTase assay (Zcchc11 assay, Lin28a-dependent polyuridylation of pre-let-7)). Conditions: Lin28a-dependent Zcchc11 (Z11) TUTase assay; read-out: Potency Lin28a-dep Z11 IC50.
T1 construct: made in house; host or cells: HEK293 cells (Zcchc11); E. coli Rosetta II (LIN28A)
T1 sequence (Q5TAX3 212-1420): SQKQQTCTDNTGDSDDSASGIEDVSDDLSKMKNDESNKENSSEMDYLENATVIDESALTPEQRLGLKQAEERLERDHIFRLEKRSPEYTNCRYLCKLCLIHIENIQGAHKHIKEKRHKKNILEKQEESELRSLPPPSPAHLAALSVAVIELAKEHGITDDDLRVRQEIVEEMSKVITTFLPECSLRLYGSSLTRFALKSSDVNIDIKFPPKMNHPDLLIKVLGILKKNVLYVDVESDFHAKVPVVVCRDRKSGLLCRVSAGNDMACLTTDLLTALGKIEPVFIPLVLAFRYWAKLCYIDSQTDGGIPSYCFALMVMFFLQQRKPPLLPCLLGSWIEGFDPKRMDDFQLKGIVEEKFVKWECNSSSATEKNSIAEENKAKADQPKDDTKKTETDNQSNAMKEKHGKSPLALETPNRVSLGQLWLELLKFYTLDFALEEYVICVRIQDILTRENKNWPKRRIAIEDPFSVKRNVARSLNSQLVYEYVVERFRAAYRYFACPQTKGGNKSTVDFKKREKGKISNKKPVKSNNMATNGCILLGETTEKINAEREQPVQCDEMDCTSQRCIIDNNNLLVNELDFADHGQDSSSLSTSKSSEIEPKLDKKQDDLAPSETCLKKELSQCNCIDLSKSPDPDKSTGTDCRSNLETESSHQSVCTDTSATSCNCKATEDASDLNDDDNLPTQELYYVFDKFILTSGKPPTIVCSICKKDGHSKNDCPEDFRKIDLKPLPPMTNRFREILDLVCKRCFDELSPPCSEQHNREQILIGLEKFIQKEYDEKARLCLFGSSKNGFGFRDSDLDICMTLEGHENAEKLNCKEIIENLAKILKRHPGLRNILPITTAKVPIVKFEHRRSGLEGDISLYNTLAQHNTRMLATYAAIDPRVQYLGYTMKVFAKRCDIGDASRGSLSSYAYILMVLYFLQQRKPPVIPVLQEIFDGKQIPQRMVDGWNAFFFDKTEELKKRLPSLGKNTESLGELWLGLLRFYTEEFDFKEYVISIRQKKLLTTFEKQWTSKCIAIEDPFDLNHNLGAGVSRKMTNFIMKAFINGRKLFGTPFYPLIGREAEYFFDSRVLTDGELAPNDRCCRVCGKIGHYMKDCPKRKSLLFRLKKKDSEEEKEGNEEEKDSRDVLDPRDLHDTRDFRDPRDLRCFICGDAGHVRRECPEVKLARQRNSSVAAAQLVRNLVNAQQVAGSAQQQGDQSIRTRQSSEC
Assay type: biochemical
How it was run: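 Readout: time-dependent quench of 5′-fluorescein pre-let-7 (2 nM) as 3′-rhodamine A20 probe anneals to poly(U) tails. Enzyme 0.2 nM Zcchc11 (res. 212-1420), LIN28A 10 nM, UTP 5 uM; pH 7.3 HEPES, 150 mM KCl, 5 mM MgCl2, RT. 4-parameter IC50; 100% = DMSO, 0% = no UTP.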
For `Cn1cc(-n2cc(C(=O)O)c(=O)c3cc(Cl)c(N4CCC[C@@H]4COc4ncccc4Cl)cc32)cn1` [Example 436, (R)-6-chloro-7-(2-(((3-chloropyridin-2-yl)oxy)methyl)pyrrolidin-1-yl)-1-(1-methyl-1H-pyrazol-4-yl)-4-oxo-1,4-dihydroquinoline-3-carboxylic acid], the IC50 was at most 1 µM. In the case of `CN(C)CCn1cc(-n2cc(C(=O)O)c(=O)c3cc(Cl)c(N4CCC[C@@H]4COc4ncccc4Cl)cc32)cn1` [Example 437, (R)-6-chloro-7-(2-(((3-chloropyridin-2-yl)oxy)methyl)pyrrolidin-1-yl)-1-(1-(2-(dimethylamino)ethyl)-1H-pyrazol-4-yl)-4-oxo-1,4-dihydroquinoline-3-carboxylic acid], the IC50 is reported as at most 1 µM. `O=C(O)c1cn(-c2ccc3[nH]ccc3c2F)c2cc(N3CCC[C@@H]3COc3ccccn3)c(F)cc2c1=O` [Example 438, (R)-6-fluoro-1-(4-fluoro-1H-indol-5-yl)-4-oxo-7-(2-((pyridin-2-yloxy)methyl)pyrrolidin-1-yl)-1,4-dihydroquinoline-3-carboxylic acid] was tested, and the IC50 was at most 1 µM. `O=C(O)c1cn(-c2ccc3[nH]ccc3c2)c2cc(N3CCC[C@@H]3COc3ccccn3)c(F)cc2c1=O` [Example 439, (R)-6-fluoro-1-(1H-indol-5-yl)-4-oxo-7-(2-((pyridin-2-yloxy)methyl)pyrrolidin-1-yl)-1,4-dihydroquinoline-3-carboxylic acid] gave an IC50 of at most 1 µM. Compound `O=C(O)c1cn(-c2ccc3[nH]cnc3c2)c2cc(N3CCC[C@@H]3COc3ccccn3)c(F)cc2c1=O` [Example 440, (R)-1-(1H-benzo[d]imidazol-5-yl)-6-fluoro-4-oxo-7-(2-((pyridin-2-yloxy)methyl)pyrrolidin-1-yl)-1,4-dihydroquinoline-3-carboxylic acid] has an IC50 of at most 1 µM. `O=C(O)c1cn(-c2ccc3[nH]c(=O)[nH]c3c2)c2cc(N3CCC[C@@H]3COc3ccccn3)c(F)cc2c1=O` [Example 441, (R)-6-fluoro-4-oxo-1-(2-oxo-2,3-dihydro-1H-benzo[d]imidazol-5-yl)-7-(2-((pyridin-2-yloxy)methyl)pyrrolidin-1-yl)-1,4-dihydroquinoline-3-carboxylic acid] gave an IC50 of at most 1 µM. `Cc1cccnc1OC[C@H]1CCCN1c1cc2c(cc1F)c(=O)c(C(=O)O)cn2-c1ccc2[nH]ccc2c1` [Example 442, (R)-6-fluoro-1-(1H-indol-5-yl)-7-(2-(((3-methyl-pyridin-2-yl)oxy)methyl)pyrrolidin-1-yl)-4-oxo-1,4-dihydroquinoline-3-carboxylic acid] was tested, and the IC50 was at most 1 µM. `Cc1cccnc1OC[C@H]1CCCN1c1cc2c(cc1F)c(=O)c(C(=O)O)cn2-c1ccc2[nH]c(=O)[nH]c2c1` [Example 443, (R)-6-fluoro-7-(2-(((3-methylpyridin-2-yl)oxy)methyl)pyrrolidin-1-yl)-4-oxo-1-(2-oxo-2,3-dihydro-1H-benzo[d]imidazol-5-yl)-1,4-dihydroquinoline-3-carboxylic acid] was tested, and the IC50 was at most 1 µM. `Cc1cccnc1OC[C@H]1CCCN1c1cc2c(cc1Cl)c(=O)c(C(=O)O)cn2-c1ccc2[nH]cnc2c1` [Example 444, (R)-1-(1H-benzo[d]imidazol-5-yl)-6-chloro-7-(2-(((3-methylpyridin-2-yl)oxy)methyl)pyrrolidin-1-yl)-4-oxo-1,4-dihydroquinoline-3-carboxylic acid] was tested, and the IC50 was at most 1 µM. `O=C(O)c1cn(-c2ccc3c(c2)CCOC3)c2cc(N3CCC[C@@H]3COc3ncccc3Cl)c(Cl)cc2c1=O` [Example 445, (R)-6-chloro-7-(2-(((3-chloropyridin-2-yl)oxy)methyl)pyrrolidin-1-yl)-1-(isochroman-6-yl)-4-oxo-1,4-dihydroquinoline-3-224 carboxylic acid] showed an IC50 of at most 1 µM. With `CC1CC1n1cc(C(=O)O)c(=O)c2cc(F)c(N3CCC[C@@H]3COc3ccccn3)cc21` (stereo partly drawn) [Example 446, 6-fluoro-1-(2-methylcyclo-propyl)-4-oxo-7-((R)-2-((pyridin-2-yloxy)methyl)pyrrolidin-1-yl)-1,4-dihydro-quinoline-3-carboxylic acid] the IC50 was 1 to 10 µM. In the case of `O=C(O)c1cn(C2CC2)c2cc(N3CCC[C@@H]3COc3ccccn3)c(F)cc2c1=O` [Example 447, (R)-1-cyclopropyl-6-fluoro-4-oxo-7-(2-((pyridin-2-yloxy)methyl)pyrrolidin-1-yl)-1,4-dihydroquinoline-3-carboxylic acid], the IC50 is reported as 1 to 10 µM. `O=C(O)c1cn(C2CCC2)c2cc(N3CCC[C@@H]3COc3ccccn3)c(F)cc2c1=O` [Example 448, (R)-1-cyclobutyl-6-fluoro-4-oxo-7-(2-((pyridin-2-yloxy)methyl)pyrrolidin-1-yl)-1,4-dihydroquinoline-3-carboxylic acid] showed an IC50 of 1 to 10 µM. Compound `O=C(O)c1cn(C2CCCC2)c2cc(N3CCC[C@@H]3COc3ccccn3)c(F)cc2c1=O` [Example 449, (R)-1-cyclopentyl-6-fluoro-4-oxo-7-(2-((pyridin-2-yloxy)methyl)pyrrolidin-1-yl)-1,4-dihydroquinoline-3-carboxylic acid] has an IC50 of 1 to 10 µM. For `O=C(O)c1cn(C2CCOCC2)c2cc(N3CCC[C@@H]3COc3ccccn3)c(F)cc2c1=O` [Example 450, (R)-6-fluoro-4-oxo-7-(2-((pyridin-2-yloxy)methyl)pyrrolidin-1-yl)-1-(tetrahydro-2H-pyran-4-yl)-1,4-dihydroquinoline-3-carboxylic acid], the IC50 was 1 to 10 µM. `O=C(O)c1cn(C2COC2)c2cc(N3CCC[C@@H]3COc3ccccn3)c(F)cc2c1=O` [Example 451, (R)-6-fluoro-1-(oxetan-3-yl)-4-oxo-7-(2-((pyridin-2-yloxy)methyl)pyrrolidin-1-yl)-1,4-dihydroquinoline-3-carboxylic acid] was tested, and the IC50 was 1 to 10 µM. `O=C(O)c1cn(C2CC(O)C2)c2cc(N3CCC[C@@H]3COc3ccccn3)c(F)cc2c1=O` (stereo partly drawn) [Example 452, (R)-6-fluoro-1-(3-hydroxycyclo-butyl)-4-oxo-7-(2-((pyridin-2-yloxy)methyl)pyrrolidin-1-yl)-1,4-dihydroquinoline-3-carboxylic acid] gave an IC50 of 1 to 10 µM. With `O=C(O)c1cn(C2CC(CO)C2)c2cc(N3CCC[C@@H]3COc3ccccn3)c(F)cc2c1=O` (stereo partly drawn) [Example 453, (R)-6-fluoro-1-(3-(hydroxymethyl)cyclobutyl)-4-oxo-7-(2-((pyridin-2-yloxy)methyl)pyrrolidin-1-yl)-1,4-dihydroquinoline-3-carboxylic acid] the IC50 was 10 to 50 µM. For `Cc1cccnc1OC[C@H]1CCCN1c1cc2c(cc1Cl)c(=O)c(C(=O)O)cn2C1(CO)CC1` [Example 454, (R)-6-chloro-1-(1-(hydroxymethyl)cyclopropyl)-7-(2-(((3-methyl-pyridin-2-yl)oxy)methyl)pyrrolidin-1-yl)-4-oxo-1,4-dihydroquinoline-3-carboxylic acid], the IC50 was 1 to 10 µM. For `Cc1cccnc1OC[C@H]1CCCN1c1cc2c(cc1Cl)c(=O)c(C(=O)O)cn2C1(C)CCC1` [Example 455, (R)-6-chloro-1-(1-methylcyclobutyl)-7-(2-(((3-methylpyridin-2-yl)oxy)methyl)pyrrolidin-1-yl)-4-oxo-1,4-dihydroquinoline-3-carboxylic acid], the IC50 was 1 to 10 µM. `Cc1cccnc1OC[C@H]1CCCN1c1cc2c(cc1Cl)c(=O)c(C(=O)O)cn2C1(C)COC1` [Example 456, (R)-6-chloro-1-(3-methyloxetan-3-yl)-7-(2-(((3-methylpyridin-2-yl)oxy)methyl)pyrrolidin-1-yl)-4-oxo-1,4-dihydroquinoline-3-carboxylic acid] showed an IC50 of 1 to 10 µM. Compound `Cc1cccnc1OC[C@H]1CCCN1c1cc2c(cc1Cl)c(=O)c(C(=O)O)cn2C1(C)CCCC1` [Example 457, (R)-6-chloro-1-(1-methylcyclo-pentyl)-7-(2-(((3-methylpyridin-2-yl)oxy)methyl)pyrrolidin-1-yl)-4-oxo-1,4-dihydroquinoline-3-carboxylic acid] has an IC50 of at most 1 µM. Work on `Cc1cccnc1OC[C@H]1CCCN1c1cc2c(cc1Cl)c(=O)c(C(=O)O)cn2C1CN(C)C1` [Example 458, (R)-6-chloro-1-(1-methylazetidin-3-yl)-7-(2-(((3-methylpyridin-2-yl)oxy)methyl)pyrrolidin-1-yl)-4-oxo-1,4-dihydroquinoline-3-carboxylic acid] yielded an IC50 of 1 to 10 µM.
